In general, Cmax refers to the peak of the concentration-time curve. Usually Tmax stands for the time from dosing to the highest level.

The text below walks through data of US20110055943A1, “NOVEL THERAPEUTIC TARGETS IN INFLAMMATORY BOWEL DISEASE” (SALIX PHARMACEUTICALS, LTD., priority 2007, published 2011).

Data set [1] relates to CYP3A. The data set can be described thus: Pharmacokinetics of MDZ in hPXR mice pretreated with RIFax. Particulars: MDZ 2.5 mg/kg oral; for AUC0-90 min / Cmax / Tmax: serum; for AUC0-90 min ratio RIFax/Cont / Cmax ratio RIFax/Cont / Tmax ratio RIFax/Cont: hPXR mice, RIFax pretreated vs control. How it is done: Blood samples were collected from suborbital veins using heparinized tubes at pre-dose, 5, 10, 20, 30, 60, and 90 min after administration of MDZ. Serum was separated by centrifugation at 8,000 g for 10 min. For MDZ and 1′-OH-MDZ extraction, 50 μl of serum was mixed with 150 μl of phosphate-buffered saline, 200 μl of ethyl acetate, and 200 μl of methyl t-butyl ether. The mixture was centrifuged at 3,000 rpm for 5 min at 4° C. The organic layer was then transferred to a new tube, dried with N2, and reconstituted in 100 μl of 70% aqueous methanol and 30% H2O containing 0.1% formic acid. […] Pharmacokinetic parameters for MDZ and 1′-OH-MDZ were estimated from the plasma concentration-time data by a non-compartmental approach using WinNonlin (Pharsight, Mountain View, Calif.). The area under the serum concentration-time curve (AUC0-90 min) was calculated by the trapezoidal rule. The maximum concentration in serum (Cmax) and its corresponding time (Tmax) were obtained from the original data.

Data set [2] is described as follows: in vivo. The class given is in vivo. The settings on record: mouse, in vivo, po, 10 mg/kg. How it is done:
(§1) The maximum concentration in serum (Cmax) was obtained from the original data. […] Intestinal contents were weighted, and homogenized in methanol (100 mg/ml). The homogenate was centrifuged at 14,000 rpm for 10 min at 4° C.
(§2) The mass spectrometer was operated in the turbo ion spray mode with positive ion detection. The turbo ion spray temperature was maintained at 300° C., and a voltage of 4.8 kV was applied to the sprayer needle. N2 was used as the turbo ion spray and nebulizing gas.

A short description of data set [3]: Intestinal tract distribution of RIF and RIFax in mice (intestinal contents, LC-MS/MS). It is filed as in vivo. The settings on record: mouse, in vivo, po, 10 mg/kg. As to the method: as §1, §2
Data set [4] addresses T1, PXR (Mus musculus, UniProt O54915).
T1 construct: host or cells: mice (DSS colitis model)
T1 sequence (O54915 1-431): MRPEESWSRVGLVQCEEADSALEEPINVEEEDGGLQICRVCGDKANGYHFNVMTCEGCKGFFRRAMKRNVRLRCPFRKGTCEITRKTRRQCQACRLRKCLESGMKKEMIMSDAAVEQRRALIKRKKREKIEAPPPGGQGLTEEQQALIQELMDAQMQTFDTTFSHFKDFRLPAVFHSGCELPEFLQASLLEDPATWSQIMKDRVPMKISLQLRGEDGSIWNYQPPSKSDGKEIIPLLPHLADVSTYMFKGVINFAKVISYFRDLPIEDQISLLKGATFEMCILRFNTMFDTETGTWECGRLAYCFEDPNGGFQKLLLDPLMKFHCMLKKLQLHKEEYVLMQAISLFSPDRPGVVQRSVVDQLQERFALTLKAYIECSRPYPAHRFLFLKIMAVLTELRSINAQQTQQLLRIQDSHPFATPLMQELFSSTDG
The settings on record: dextran sulfate sodium (DSS)-induced BD mouse model; cited from earlier work.

Data set [5] deals with MRP2. Particulars: rat hepatocytes; cited from earlier work.
Data set [6] deals with MRP2. The settings on record: mouse PXR ligand; cited from earlier work.
Where [7] appears, read: Cont: hPXR mice without RIFax pretreatment.
Where [8] appears, read: hPXR mice pretreated with RIFax 10 mg/kg/day for 3 days.

With `OCc1ncc2n1-c1ccc(Cl)cc1C(c1ccccc1F)=NC2` [1′-OH-MDZ, 1′-Hydroxymidazolam], in data set [1] (setting [7]), the AUC0-90 min amounted to 32.4 ± 3.0 µmol·min/L, the Cmax worked out at 562 ± 4.9 nM and the Tmax worked out at 25.0 ± 7.1 min. Also, in data set [1] (setting [8]), the AUC0-90 min was 36.5 ± 4.2 µmol·min/L, the Cmax was 823 ± 55.2 nM and the Tmax turned out to be 7.5 ± 3.5 min. Also, in data set [1], the “AUC0-90 min ratio RIFax/Cont” value came out at 1.1, the “Cmax ratio RIFax/Cont” value is 1.5 and the “Tmax ratio RIFax/Cont” value is given as 0.3.

For `Cc1ncc2n1-c1ccc(Cl)cc1C(c1ccccc1F)=NC2` [MDZ, midazolam], in data set [1] (setting [7]), the AUC0-90 min amounted to 8.0 ± 0.4 µmol·min/L, the Cmax turned out to be 477 ± 40.3 nM and the Tmax was 10.0 ± 0.0 min. In data set [1] (setting [8]), the AUC0-90 min was found to be 8.9 ± 0.7 µmol·min/L, the Cmax amounted to 383 ± 19.1 nM and the Tmax is listed as 12.5 ± 10.6 min. Also, in data set [1], the “AUC0-90 min ratio RIFax/Cont” value stood at 1.1, the “Cmax ratio RIFax/Cont” value is listed as 0.8 and the “Tmax ratio RIFax/Cont” value is recorded as 1.3.

In turn, `CO[C@H]1/C=C/O[C@@]2(C)Oc3c(C)c(O)c4c(O)c(c(/C=N/N5CCN(C)CC5)c(O)c4c3C2=O)NC(=O)/C(C)=C\C=C\[C@H](C)[C@H](O)[C@@H](C)[C@@H](O)[C@@H](C)[C@H](OC(C)=O)[C@@H]1C` [RIF, 3-(4-Methylpiperazinyliminomethyl)rifamycin SV] had a Cmax in data set [2] of 2750 nM. In data set [3], the “concentration in the small intestine (content)” value is on record as “below 20 μg/g”.

For `CC(=O)[C@H]1[C@H](C#N)C[C@H]2[C@@H]3CC=C4C[C@@H](O)CC[C@]4(C)[C@H]3CC[C@@]21C` [PCN], the DSS-induced colitis entry in data set [4] is reported as “significantly prevented”. For the same compound, the MRP2 activation entry in data set [5] was “activated”. The MRP2 induction result in data set [6] was “not significantly induced”.
